Where “and” joins values, the source holds several entries; their conditions need not be identical. Identical values can stand only once. Like-named read-outs stand apart in the source and are kept apart here.
Experiments:
PfDHODH = target: T1, PfDHODH (Plasmodium falciparum, UniProt Q08210); test: biochemical
T1 sequence (Q08210 24-569): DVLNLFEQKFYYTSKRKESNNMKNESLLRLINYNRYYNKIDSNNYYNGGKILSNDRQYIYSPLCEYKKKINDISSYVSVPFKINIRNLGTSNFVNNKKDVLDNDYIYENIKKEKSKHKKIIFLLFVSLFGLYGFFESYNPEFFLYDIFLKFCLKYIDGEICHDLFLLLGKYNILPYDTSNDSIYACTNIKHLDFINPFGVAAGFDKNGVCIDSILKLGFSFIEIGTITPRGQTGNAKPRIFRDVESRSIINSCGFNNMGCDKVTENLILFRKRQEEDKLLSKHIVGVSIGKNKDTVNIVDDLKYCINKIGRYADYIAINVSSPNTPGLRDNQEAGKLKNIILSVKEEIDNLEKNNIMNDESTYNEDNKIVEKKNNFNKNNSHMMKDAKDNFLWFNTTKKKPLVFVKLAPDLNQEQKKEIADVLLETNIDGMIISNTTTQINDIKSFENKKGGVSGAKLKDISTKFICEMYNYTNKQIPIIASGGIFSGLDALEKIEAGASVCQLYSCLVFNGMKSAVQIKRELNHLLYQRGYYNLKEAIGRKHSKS
Description: (§1) Briefly, the assay solution contained 100 mM HEPES, pH 8.0, 150 mM NaCl, 10% glycerol, 0.1% Triton X-100, 20 micro molar COQD (coenzyme QD), 200 micro molar L-dihydroorotate, and 120 micro molar DCIP. Reactions are initiated by addition of enzyme to a final concentration in the range of about […] to about 50 nM while maintaining the temperature of a circulating water bath at 25° C.
(§2) Assay solutions were prepared as discussed above, except that DCIP is not present and the solution is depleted of oxygen by the inclusion of an oxidase/reductase system, such as, 0.1 mg/ml of glucose oxidase, 0.02 mg/ml catalase and 50 mM glucose. The data obtained is fitted to equation 1, to determine the IC50 values of the representative compounds.

P. falciparum = test: Inhibition of cell proliferation, 3H-hypoxanthine uptake in P. falciparum-infected erythrocytes; format: cell-based
Text: [formula] II. In Vitro Evaluation of Compound Efficacy on the Human Malaria Parasite, P. falciparum.

PbDHODH = PbDHODH (Plasmodium berghei, UniProt A0A509AEH5); test: DHODH enzyme inhibition assay, PbDHODH; format: biochemical, P. berghei; settings: Table 3, average of the determinations; read-out: PbDHODH IC50 Ave (converted)
Description: as §1, §2

P. berghei = test: Standard P. berghei mouse model of infection; format: in vivo; settings: mice, oral
Description: (A) The standard P. berghei mouse model for infection is utilized to evaluate the efficacy of candidate compounds, according to the invention, against parasites in vivo. See review of Fidock, et al. (2004) Nature Rev. Drug Discovery 3, 509-20. Compounds are dosed either orally or IP, with the exact regimens (e.g. frequency of dosing, drug concentrations at dosing) determined based on the pharmocokinetic profiles of the individual analogs. […] Inhibition of parasite growth is determined microscopically by staining a thin smear of blood obtained from the test animal using a Wright-Giemsa stain.

[1] = Pharmacokinetic analysis after single oral dose in mice; format: in vivo; settings: for peak plasma concentration: FIG. 1A
Description: Pharmacokinetics of the inventive compounds was studied individually in non-fasted male Swiss outbred mice weighing 23-33 g. Mice had access to food and water ad libitum throughout the pre- and post-dose sampling period. Compounds were administered orally by gavage (0.1 mL dose volume per mouse) in a suspension of aqueous vehicle (0.5% w/v sodium caboxymethylcellulose, 0.5% v/v benzyl alcohol and 0.4% v/v Tween 80). A single blood sample was collected from each mouse via cardiac puncture at each indicated time point and transferred to heparinised tubes. Blood samples were centrifuged immediately, supernatant plasma was removed and stored at −20° C. until analysis (within 1-2 weeks). Plasma samples were assayed by LC-MS following protein precipitation with acetonitrile and the concentration of drug in plasma was determined. Pharmacokinetic parameters were calculated on the basis of plasma concentration-time profiles that used the mean plasma concentration at each sample time.

hDHODH = hDHODH (Homo sapiens, UniProt Q02127); test: DHODH enzyme inhibition assay, hDHODH; format: biochemical; settings: Table 1; read-out: IC50 hDHODH
Description: as §1, §2

[2] = Table 5, read-out: PfDHODH IC50
[3] = Plasmodium falciparum, 3D7, Erythrocyte, Table 5, 3D7 cells, read-out: EC50 P. falciparum 3D7 cells
[4] = Plasmodium falciparum, 3D7, Erythrocyte, Table 3, 3D7, single determinations, read-out: P. falciparum 3D7 EC50 (converted)
[5] = for a 2.5-fold increase in dose, 20 to 50 mg/kg
[6] = Table 1, read-out: IC50 PfDHODH
[7] = Plasmodium falciparum, Erythrocyte, Table 1, read-out: EC50 P. falciparum

Sequence of hDHODH (Q02127 whole entry): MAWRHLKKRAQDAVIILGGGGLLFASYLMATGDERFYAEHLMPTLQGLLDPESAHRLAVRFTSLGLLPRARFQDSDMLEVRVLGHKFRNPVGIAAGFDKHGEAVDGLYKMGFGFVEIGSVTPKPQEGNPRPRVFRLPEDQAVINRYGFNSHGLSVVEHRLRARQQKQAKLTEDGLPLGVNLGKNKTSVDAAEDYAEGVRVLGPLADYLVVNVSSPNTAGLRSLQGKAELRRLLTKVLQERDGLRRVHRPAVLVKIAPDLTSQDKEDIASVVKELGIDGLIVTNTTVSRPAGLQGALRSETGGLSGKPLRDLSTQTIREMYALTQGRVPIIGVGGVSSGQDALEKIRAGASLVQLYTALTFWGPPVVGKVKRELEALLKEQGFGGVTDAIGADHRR
Sequence of PbDHODH (A0A509AEH5 entry or part of it): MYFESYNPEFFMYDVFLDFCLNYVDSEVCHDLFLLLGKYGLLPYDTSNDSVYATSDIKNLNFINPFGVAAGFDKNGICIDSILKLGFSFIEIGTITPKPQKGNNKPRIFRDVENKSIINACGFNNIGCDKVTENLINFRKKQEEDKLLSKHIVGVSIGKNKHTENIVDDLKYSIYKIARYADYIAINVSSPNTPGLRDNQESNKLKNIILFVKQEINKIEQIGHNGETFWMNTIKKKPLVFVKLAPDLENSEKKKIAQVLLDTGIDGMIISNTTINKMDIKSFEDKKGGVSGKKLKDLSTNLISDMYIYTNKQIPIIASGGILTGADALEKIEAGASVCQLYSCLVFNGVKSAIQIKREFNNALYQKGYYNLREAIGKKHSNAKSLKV

## Cc1cc(Nc2ccc(C(F)(F)F)cc2)n2nc(C)nc2n1 [2,5-dimethyl-N-(4-(trifluoromethyl)phenyl)-[1,2,4]triazolo[1,5-a]pyrimidin-7-amine]
PfDHODH; [2]
  IC50: 650 ± 310 nM
P. falciparum; [3]
  EC50: 930 ± 18 nM

## Cc1cc(Nc2ccc(OC(F)F)cc2)n2ncnc2n1 [Compound 20, (4-Difluoromethoxy-phenyl)-(5-methyl-[1,2,4]triazolo[1,5-a]pyrimidin-7-yl)-amine]
other
  melting point: 200 °C

## Cc1nc2ncnn2c(Nc2ccc(C(F)(F)F)cc2)c1Cl [6-chloro-5-methyl-N-(4-(trifluoromethyl)phenyl)-[1,2,4]triazolo[1,5-a]pyrimidin-7-amine]
PfDHODH; [2]
  IC50: 340 ± 60 nM
P. falciparum; [3]
  EC50: 2700 ± 30 nM

## Cc1cc(Nc2ccc3ccccc3c2)n2ccnc2n1
PbDHODH
  IC50: 2800 nM
PfDHODH; PfDHODH IC50, Table 3, single determinations
  IC50: 160 nM and 140 nM
PfDHODH; Table 3, average of the determinations, read-out: PfDHODH IC50 Ave (converted)
  IC50: 150 nM
P. falciparum; [4]
  EC50: 200 ± 1 nM

## Cc1cc(Nc2ccc(Br)c(C)c2)n2nc(C)nc2n1
PfDHODH; [2]
  IC50: 70.6 nM
P. falciparum; [3]
  EC50: 80 to 120 nM

## Cc1nc2ncnn2c(Nc2ccc(C(F)(F)F)cc2)c1C [5,6-dimethyl-N-(4-(trifluoromethyl)phenyl)-[1,2,4]triazolo[1,5-a]pyrimidin-7-amine]
PfDHODH; [2]
  IC50: 1200 ± 330 nM
P. falciparum; [3]
  EC50: 2700 ± 9 nM

## Cc1cc(Nc2ccc3ccccc3c2)n2nccc2n1
PbDHODH
  IC50: 3300 nM
PfDHODH; Table 3, single determinations, read-out: PfDHODH IC50
  IC50: 400 ± 90 nM
P. falciparum; Plasmodium falciparum, 3D7, Erythrocyte, Table 3, 3D7, average of the determinations, read-out: P. falciparum 3D7 EC50 Ave
  EC50: 1000 nM
P. falciparum; [4]
  EC50: 990 ± 6 nM
P. falciparum; Table 3, 3D7, single determinations, read-out: P. falciparum 3D7 EC50 (converted)
  EC50: 1100 nM

## Cc1cc(Nc2ccc(F)c(C)c2)n2ncnc2n1
other
  melting point: 231 °C

## Cc1cc(Nc2ccc(C(F)(F)F)cc2)n2ncnc2n1 [drawing 22]
P. berghei; 50 mg/kg, blood smear Wright-Giemsa stain, FIG. 1B
  parasite growth: suppresses parasite growth
P. berghei; twice a day versus single dose
  parasite growth, twice a day rather than a single dose: Greater suppression of parasite growth
P. falciparum; Plasmodium falciparum, 3D7, Erythrocyte, Table 2, 3D7, read-out: P. falciparum 3D7 EC50 (converted)
  EC50: 350 ± 3 nM
[1]; [5]
  AUC0-last increase: 4.4 fold
  Cmax increase: 3.5 fold
[1]; male, Swiss outbred, mouse, plasma, mice, oral, 50 mg/kg, read-out: apparent half-life
  half-life: 2.95 h
[1]; mice, oral, 20 mg/kg
  AUC0-last: 2690 µM·min
  Cmax: 7.9 ± 2.5 µM
  apparent half-life: 1.8 h
  peak plasma concentration: 11 micro molar
[1]; mice, oral, 20 mg/kg and 50 mg/kg
  adverse reactions following oral administration: No adverse reactions were observed
[1]; mice, oral, 50 mg/kg
  AUC0-last: 11757 µM·min
  Cmax: 27.6 ± 5 µM
  time with plasma concentration above 1 μM: 16 h
  peak plasma concentration: 31 micro molar

## Cc1cc(Nc2ccc3ccccc3c2)n2nc(C)nc2n1
PfDHODH; [6]
  IC50: 120 ± 20 nM
P. falciparum; [7]
  EC50: < 150 nM
hDHODH
  IC50: > 200000 nM

## Cc1cc(Nc2ccc3cc4ccccc4cc3c2)n2nc(C)nc2n1
PfDHODH; [6]
  IC50: 100 nM
P. falciparum; [7]
  EC50: 230 ± 1.4 nM
hDHODH
  IC50: > 200000 nM

## CC1=NC2=NC=NC2C(Nc2ccc3ccccc3c2)=N1 (stereo not shown) [2-methyl-N-(naphthalen-2-yl)-9H-purin-6-amine]
PfDHODH; IC50 PfDHODH, Table 1
  IC50: 440 ± 200 nM
P. falciparum; Plasmodium falciparum, Erythrocyte, read-out: EC50 P. falciparum
  EC50: 1600 nM
hDHODH
  IC50: > 200000 nM

## Cc1cc(Nc2cccc(Cl)c2)n2ncnc2n1 [drawing 23]
other
  melting point: 227 °C

## Cc1nc2nc(C)c(C)c(Nc3ccc(C(F)(F)F)cc3)n2n1 [2,5,6-trimethyl-N-(4-(trifluoromethyl)phenyl)-[1,2,4]triazolo[1,5-a]pyrimidin-7-amine]
PfDHODH; [2]
  IC50: 3000 ± 460 nM
P. falciparum; [3]
  EC50: 3600 ± 4 nM
